Test: xn = mol fraction of the nth substance listed
Conditions: 101 kPa, Liquid

ClC(Cl)Cl [trichloromethane] + CCC(C)O
mass density [kg/m3]
Conditions | 288.15 K | 293.15 K | 298.15 K | 303.15 K | 308.15 K | 313.15 K
x2 = 0 | 1498.08 | 1488.64 | 1479.15 | 1469.61 | 1460.03 | 1450.41
x2 = 0.0514 | 1455.49 | 1446.33 | 1437.12 | 1427.86 | 1418.55 | 1409.22
x2 = 0.1045 | 1413.17 | 1404.26 | 1395.31 | 1386.31 | 1377.26 | 1368.2
x2 = 0.1518 | 1376.62 | 1367.94 | 1359.22 | 1350.44 | 1341.17 | 1332.78
x2 = 0.1962 | 1342.92 | 1334.49 | 1326.01 | 1317.48 | 1308.89 | 1300.27
x2 = 0.2512 | 1302.06 | 1293.92 | 1285.73 | 1277.49 | 1269.19 | 1260.86
x2 = 0.2998 | 1266.64 | 1258.77 | 1250.84 | 1242.86 | 1234.82 | 1226.74
x2 = 0.3507 | 1230.33 | 1222.74 | 1215.09 | 1207.39 | 1199.64 | 1191.86
x2 = 0.3995 | 1196.11 | 1188.78 | 1181.4 | 1173.96 | 1166.47 | 1158.94
x2 = 0.4502 | 1161.11 | 1154.06 | 1146.95 | 1139.78 | 1132.56 | 1125.28
x2 = 0.4978 | 1128.73 | 1121.94 | 1115.08 | 1108.17 | 1101.2 | 1094.2
x2 = 0.546 | 1096.47 | 1089.93 | 1083.34 | 1076.68 | 1069.96 | 1063.21
x2 = 0.6008 | 1060.39 | 1054.14 | 1047.83 | 1041.47 | 1035.03 | 1028.55
x2 = 0.6498 | 1028.63 | 1022.64 | 1016.59 | 1010.48 | 1004.3 | 998.07
x2 = 0.7008 | 995.87 | 990.15 | 984.37 | 978.52 | 972.61 | 966.65
x2 = 0.7446 | 968.17 | 962.68 | 957.13 | 951.51 | 945.82 | 940.07
x2 = 0.7984 | 934.4 | 929.2 | 923.93 | 918.6 | 913.19 | 907.74
x2 = 0.8507 | 901.92 | 897 | 892.02 | 886.97 | 881.84 | 876.65
x2 = 0.9 | 871.62 | 866.99 | 862.29 | 857.51 | 852.65 | 847.72
x2 = 0.9486 | 841.91 | 837.56 | 833.14 | 828.64 | 824.05 | 819.39

Reference: the NIST ThermoML archive (doi:10.1021/je800157v)
